Results reported in US10233179B2, “Thiazoles and uses thereof” (AbbVie Inc., priority 2013, dated 2019).

How the values were obtained:
HEp-2 cells = experiment: Cytotoxicity assay (MTT) in parallel with the antiviral assay; type: cell-based; conditions: uninfected HEp-2 cells, 4 days incubation, MTT viability
Procedure: HEp-2 cells and RSV (Group A, Long Strain) were obtained from the American Type Culture Collection (Manassas, Va.). Cytotoxicity of the compounds was determined in experiments done in parallel with the antiviral assays. To do this, 100 μL of assay medium was added to the wells of HEp-2 cells pretreated with 100 μL serially diluted compounds as described above. After 4 days of incubation, the viability of the cells was determined by the MTT assay in the same way as detailed in the “Antiviral Assay” method. Results were expressed as 50% toxicity dose (TD50) values. Compounds were tested to determine both their antiviral and toxicity to determine their therapeutic window. Determination of the EC50 and TD50 of these active compounds were repeated one additional time to confirm the window.

[1] = tested on: RSV (Group A, Long Strain); experiment: Antiviral cytopathic effect (CPE) protection assay, MTT readout; type: cell-based; conditions: human respiratory syncytial virus, 96 h; HEp-2 cells, 0.2 MOI RSV, 4 days incubation, protection from CPE by MTT
Procedure: HEp-2 cells and RSV (Group A, Long Strain) were obtained from the American Type Culture Collection (Manassas, Va.).
A cytopathic effect (CPE) protection assay was performed to determine the ability of a compound to protect the cells from viral infection and thus the CPE induced by viral infection. 96-Well plates were first seeded with 3×10^3 HEp-2 cells per well in Dulbecco's modified Eagle's medium (DMEM) containing 10% fetal bovine serum (FBS). One day after the cells were seeded, they were preincubated with serial dilutions of compounds prepared in 100 μL assay medium (DMEM mixed with F12 medium at a 1:1 ratio, supplemented with 2% FBS and 1 mM sodium pyruvate) for 1 hour at 37° C. 100 μL of assay medium containing 0.2 multiplicity of infection (MOI) of RSV was then added to each well of cells. In addition to wells containing infected cells incubated with compounds, each plate also contained replicates of two kinds of controls: (1) Virus control contained cells infected with 0.2 MOI of RSV in assay medium, (2) Uninfected cell control contained cells incubated with assay medium only. After 4 days of incubation at 37° C., the viability of cells was assessed using MTT (Thiazolyl blue tetrazolium bromide, Sigma). A stock solution of MTT, at a concentration of 4 mg/mL in phosphate-buffered saline, was added to all wells at 25 μL per well. Plates were further incubated for 4 hours, and each well was then treated with 50 μL of a solution containing 20% sodium dodecyl sulfate (SDS) and 0.02 N HCl. After an overnight incubation, the plates were measured on a BioTek® microtiter plate reader at wavelengths of 570 nm and 650 nm. The MTT detection is based on the fact that viable (uninfected) cells can reduce the tetrazolium salts into colored formazan products, which can then be quantitated by spectrometry. Based on the spectrometric absorbance of each sample, the percent of protection from CPE, which is an indicator of protection from viral infection, can be calculated for each compound and the 50% effective concentrations (EC50) can be calculated using a nonlinear regression curve fitting equation provided by the GraphPad Prism® 4 software.
Compounds were tested to determine both their antiviral and toxicity to determine their therapeutic window. Determination of the EC50 and TD50 of these active compounds were repeated one additional time to confirm the window.

Row | EC50 [1] [µM] | SMILES | MTT TD50 (HEp-2 cells) [µM]
1 | 0.36 | C[C@@H](c1ccccc1Cl)N(Cc1cccn1-c1nncs1)Cc1cccn1-c1nncs1 [Example 20, (1S)-1-(2-chlorophenyl)-N,N-bis{[1-(1,3,4-thiadiazol-2-yl)-1H-pyrrol-2-yl]methyl}ethanamine] | >32
2 | > 5.6 | Cc1c(C(C)N(Cc2cccn2-c2nccs2)Cc2ncc(-c3ccccc3)n2C)cnn1-c1cccc(F)c1 (stereo not drawn) [Example 41, 1-[1-(3-fluorophenyl)-5-methyl-1H-pyrazol-4-yl]-N-[(1-methyl-5-phenyl-1H-imidazol-2-yl)methyl]-N-{[1-(1,3-thiazol-2-yl)-1H-pyrrol-2-yl]methyl}ethanamine] | 5.6
3 | 0.85 | c1cncc(C2(CCN(Cc3cccn3-c3nccs3)Cc3cccn3-c3nccs3)CC2)c1 [Example 60, 2-[1-(pyridin-3-yl)cyclopropyl]-N,N-bis{[1-(1,3-thiazol-2-yl)-1H-pyrrol-2-yl]methyl}ethanamine] | >100
4 | 0.09 | c1cncc(C2(CN(Cc3cccn3-c3nccs3)Cc3cccn3-c3nccs3)CC2)c1 [Example 65, 1-[1-(pyridin-3-yl)cyclopropyl]-N,N-bis{[1-(1,3-thiazol-2-yl)-1H-pyrrol-2-yl]methyl}methanamine] | 25
5 | > 21 | FC(F)(F)c1ccc(CN(Cc2cccn2-c2nncs2)Cc2cccn2-c2nncs2)cc1 [Example 54, 1-[1-(1,3,4-thiadiazol-2-yl)-1H-pyrrol-2-yl]-N-{[1-(1,3,4-thiadiazol-2-yl)-1H-pyrrol-2-yl]methyl}-N-[4-(trifluoromethyl)benzyl]methanamine] | 21
6 | 0.033 | Clc1cccc(Cl)c1CN(Cc1cccn1-c1nccs1)Cc1cccn1-c1nccs1 [Example 36, 1-(2,6-dichlorophenyl)-N,N-bis{[1-(1,3-thiazol-2-yl)-1H-pyrrol-2-yl]methyl}methanamine] | 24
7 | 0.054 | COc1ccc(CN(Cc2cccn2-c2nccs2)Cc2cccn2-c2nccs2)c(OC)c1 [Example 30, 1-(2,4-dimethoxyphenyl)-N,N-bis{[1-(1,3-thiazol-2-yl)-1H-pyrrol-2-yl]methyl}methanamine] | 4.9
8 | 0.11 | C[C@H](c1ccccc1Cl)N(Cc1cccn1-c1nccs1)Cc1cccn1-c1nccs1 [Example 48, (1R)-1-(2-chlorophenyl)-N,N-bis{[1-(1,3-thiazol-2-yl)-1H-pyrrol-2-yl]methyl}ethanamine] | 6.7
9 | 4.6 | c1cc(CN(Cc2cccn2-c2nccs2)CC2CCCO2)n(-c2nccs2)c1 (stereo not drawn) [Example 33, 1-(tetrahydrofuran-2-yl)-N,N-bis{[1-(1,3-thiazol-2-yl)-1H-pyrrol-2-yl]methyl}methanamine] | 16
10 | > 0.11 | Cc1c(C(C)N(Cc2ccc(Cl)cc2-c2ccnc(C(F)(F)F)n2)Cc2cccn2-c2nccs2)cnn1-c1cccc(F)c1 (stereo not drawn) [Example 5, N-{4-chloro-2-[2-(trifluoromethyl)pyrimidin-4-yl]benzyl}-1-[1-(3-fluorophenyl)-5-methyl-1H-pyrazol-4-yl]-N-{[1-(1,3-thiazol-2-yl)-1H-pyrrol-2-yl]methyl}ethanamine] | 0.11
11 | 0.071 | Cc1c([C@H](C)N(Cc2cccn2-c2nccs2)Cc2cccn2-c2nccs2)cnn1-c1cccc(F)c1 [Example 2, (1S)-1-[1-(3-fluorophenyl)-5-methyl-1H-pyrazol-4-yl]-N,N-bis{[1-(1,3-thiazol-2-yl)-1H-pyrrol-2-yl]methyl}ethanamine] | >32
12 | 0.24 | COc1ccc(CN(Cc2cccn2-c2nncs2)Cc2cccn2-c2nncs2)c(OC)c1 [Example 8, 1-(2,4-dimethoxyphenyl)-N,N-bis{[1-(1,3,4-thiadiazol-2-yl)-1H-pyrrol-2-yl]methyl}methanamine] | 22
13 | 0.52 | FC(F)(F)Cn1cc(CN(Cc2cccn2-c2nccs2)Cc2cccn2-c2nccs2)cn1 [Example 58, 1-[1-(1,3-thiazol-2-yl)-1H-pyrrol-2-yl]-N-{[1-(1,3-thiazol-2-yl)-1H-pyrrol-2-yl]methyl}-N-{[1-(2,2,2-trifluoroethyl)-1H-pyrazol-4-yl]methyl}methanamine] | 49
14 | 0.047 | Cc1cc(N(Cc2cccn2-c2nccs2)Cc2cccn2-c2nccs2)n(-c2ccccc2)n1 [Example 35, 3-methyl-1-phenyl-N,N-bis{[1-(1,3-thiazol-2-yl)-1H-pyrrol-2-yl]methyl}-1H-pyrazol-5-amine] | >32
15 | > 3 | C[C@H](c1ccc(F)cc1)N(Cc1cccn1-c1nccs1)Cc1cccn1-c1nccs1 [Example 62, (1R)-1-(4-fluorophenyl)-N,N-bis{[1-(1,3-thiazol-2-yl)-1H-pyrrol-2-yl]methyl}ethanamine] | 3.0
